Results on 25 molecules are retold here after ChEMBL document CHEMBL3580623, “Minor Structural Change to Tertiary Sulfonamide RORc Ligands Led to Opposite Mechanisms of Action” (ACS Med Chem Lett, 2015).

In data set [1] the target is T1, Nuclear receptor ROR-gamma (Homo sapiens, UniProt P51449).
T1 sequence (P51449 whole entry): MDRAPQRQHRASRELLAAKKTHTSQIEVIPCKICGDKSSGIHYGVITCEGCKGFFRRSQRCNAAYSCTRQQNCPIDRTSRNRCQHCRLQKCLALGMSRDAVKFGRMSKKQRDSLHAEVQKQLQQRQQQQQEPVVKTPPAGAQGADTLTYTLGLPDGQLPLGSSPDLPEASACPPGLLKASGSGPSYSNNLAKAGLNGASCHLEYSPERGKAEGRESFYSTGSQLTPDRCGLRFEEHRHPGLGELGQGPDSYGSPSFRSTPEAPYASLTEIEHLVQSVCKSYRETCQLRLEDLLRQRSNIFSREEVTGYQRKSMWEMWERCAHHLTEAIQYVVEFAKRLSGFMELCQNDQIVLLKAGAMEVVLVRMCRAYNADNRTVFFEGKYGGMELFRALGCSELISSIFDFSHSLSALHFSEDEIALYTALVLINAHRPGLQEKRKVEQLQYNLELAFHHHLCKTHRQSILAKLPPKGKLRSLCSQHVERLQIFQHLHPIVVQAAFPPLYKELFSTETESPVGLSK
In kind it is functional.

Data set [2] concerns the target T1, Nuclear receptor ROR-gamma.
Description: Displacement of [3H2]-25-hydroxycholesterol from N-terminal 6xHis-tagged human RORc ligand binding domain (241 to 486) expressed in bacterial expression system after 3 hrs by scintillation counting analysis
Data set [3] deals with PBMC. In words: Induction of IL17 production in human PBMC cells after 48 hrs by sandwich ELISA method relative to control. It is filed as functional.
Data set [4] has as its system PBMC. In words: Effect on IFNgamma production in human PBMC cells after 48 hrs by sandwich ELISA method. In kind it is functional, cell-based. A general note: In an ELISA, binding on a coated surface is turned into a signal by an enzyme label.
Data set [5] concerns the target T1, Nuclear receptor ROR-gamma. In kind it is functional. This is another data set of the same source.
The test system of data set [6] is PBMC. In words: Induction of IL17 production in human PBMC cells after 48 hrs by sandwich ELISA method. In kind it is functional, cell-based.
Data set [7] deals with PBMC. In words: Cytotoxicity against human PBMC assessed as effect on cell physiology after 48 hrs by CellTiter-Glo assay. In kind it is cell-based. On the technique in general: ATP-based viability assays read luminescence as a measure of living cells.
Data set [8] relates to PBMC. In words: Inhibition of IL17 production in human PBMC cells after 48 hrs by sandwich ELISA method relative to control. In kind it is functional.
The subject of data set [9] is PBMC. In words: Inhibition of IL17 production in human PBMC cells after 48 hrs by sandwich ELISA method. In kind it is functional, cell-based.
The target of a further data set is T2, Bile acid receptor (Homo sapiens, UniProt Q96RI1).
T2 sequence (Q96RI1 whole entry): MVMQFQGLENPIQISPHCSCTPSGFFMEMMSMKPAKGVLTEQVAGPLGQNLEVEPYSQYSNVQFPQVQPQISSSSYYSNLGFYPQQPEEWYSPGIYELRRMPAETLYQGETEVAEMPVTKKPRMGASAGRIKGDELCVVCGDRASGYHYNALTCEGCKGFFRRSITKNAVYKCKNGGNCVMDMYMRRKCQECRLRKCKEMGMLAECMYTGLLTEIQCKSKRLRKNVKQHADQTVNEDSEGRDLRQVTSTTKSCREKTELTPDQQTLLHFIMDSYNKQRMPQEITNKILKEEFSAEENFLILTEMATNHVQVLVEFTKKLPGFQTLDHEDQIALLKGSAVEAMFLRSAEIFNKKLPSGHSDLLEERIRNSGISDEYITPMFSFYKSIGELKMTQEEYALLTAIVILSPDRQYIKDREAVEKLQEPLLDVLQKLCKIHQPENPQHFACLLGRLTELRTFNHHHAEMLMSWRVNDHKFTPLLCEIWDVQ
In words: Antagonist activity at GAL4-fused human FXR expressed in HEK293T cells assessed as inhibition of agonist-induced transcriptional activity after 20 hrs by dual-glo luciferase reporter gene assay. In general terms: A reporter such as luciferase makes a cellular process visible.

In data set [10] the target is T3, Nuclear receptor ROR-beta (Homo sapiens, UniProt Q92753).
T3 sequence (Q92753 whole entry): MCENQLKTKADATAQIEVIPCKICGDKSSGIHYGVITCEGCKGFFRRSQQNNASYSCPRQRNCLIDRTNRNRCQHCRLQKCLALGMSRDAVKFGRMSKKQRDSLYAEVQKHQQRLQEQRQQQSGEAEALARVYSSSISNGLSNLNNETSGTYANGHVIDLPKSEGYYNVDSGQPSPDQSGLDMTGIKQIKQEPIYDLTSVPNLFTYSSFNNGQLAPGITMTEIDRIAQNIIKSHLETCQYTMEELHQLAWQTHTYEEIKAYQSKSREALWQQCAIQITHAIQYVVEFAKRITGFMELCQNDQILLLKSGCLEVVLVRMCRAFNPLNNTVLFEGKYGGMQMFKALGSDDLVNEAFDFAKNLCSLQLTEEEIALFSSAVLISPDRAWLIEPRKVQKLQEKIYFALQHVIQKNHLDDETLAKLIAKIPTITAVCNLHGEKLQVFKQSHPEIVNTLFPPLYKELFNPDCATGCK
In words: Inverse agonist activity at GAL4-fused human RORb expressed in HEK293T cells assessed as suppression of basal transcriptional activity after 20 hrs by dual-glo luciferase reporter gene assay. In kind it is cell-based, HEK-293T.

In data set [11] the target is T1, Nuclear receptor ROR-gamma. In words: Inverse agonist activity at GAL4-fused human RORc expressed in HEK293T cells assessed as suppression of basal transcriptional activity after 20 hrs by dual-glo luciferase reporter gene assay. In kind it is functional, cell-based, HEK-293T.
Data set [12] addresses T4, Oxysterols receptor LXR-alpha (Homo sapiens, UniProt Q13133).
T4 sequence (Q13133 whole entry): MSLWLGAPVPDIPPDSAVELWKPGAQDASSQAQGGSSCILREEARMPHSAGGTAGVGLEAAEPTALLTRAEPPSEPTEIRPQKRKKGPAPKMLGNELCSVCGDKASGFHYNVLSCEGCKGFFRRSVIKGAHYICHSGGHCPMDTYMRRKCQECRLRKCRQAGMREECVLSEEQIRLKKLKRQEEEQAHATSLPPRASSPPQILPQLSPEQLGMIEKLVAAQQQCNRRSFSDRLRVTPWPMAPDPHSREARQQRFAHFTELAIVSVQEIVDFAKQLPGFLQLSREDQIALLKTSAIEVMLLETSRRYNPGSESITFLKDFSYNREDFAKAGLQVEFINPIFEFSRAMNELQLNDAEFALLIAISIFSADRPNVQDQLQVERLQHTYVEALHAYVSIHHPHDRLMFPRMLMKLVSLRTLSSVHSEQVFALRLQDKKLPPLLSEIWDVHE
In words: Antagonist activity at GAL4-fused human LXRalpha expressed in HEK293T cells assessed as inhibition of agonist-induced transcriptional activity after 20 hrs by dual-glo luciferase reporter gene assay.

Data set [13] has as its target T5, Nuclear receptor subfamily 1 group I member 2 (Homo sapiens, UniProt O75469).
T5 sequence (O75469 whole entry): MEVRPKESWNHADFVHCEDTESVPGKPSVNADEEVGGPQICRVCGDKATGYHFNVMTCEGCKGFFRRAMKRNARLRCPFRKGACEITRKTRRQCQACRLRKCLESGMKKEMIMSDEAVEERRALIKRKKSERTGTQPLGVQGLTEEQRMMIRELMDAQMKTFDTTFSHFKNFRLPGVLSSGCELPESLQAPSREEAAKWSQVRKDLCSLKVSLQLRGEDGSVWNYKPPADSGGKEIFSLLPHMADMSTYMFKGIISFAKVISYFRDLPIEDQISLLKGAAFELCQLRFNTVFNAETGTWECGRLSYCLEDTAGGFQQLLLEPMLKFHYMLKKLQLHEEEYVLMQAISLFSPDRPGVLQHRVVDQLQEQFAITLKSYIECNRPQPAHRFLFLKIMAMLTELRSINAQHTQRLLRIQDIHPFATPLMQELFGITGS
In words: Agonist activity at GAL4-fused human PXR expressed in HEK293T cells assessed as activation of basal transcriptional activity after 20 hrs by dual-glo luciferase reporter gene assay. It is filed as cell-based. Particulars: hek-293t; call rule not given here.

By EC50 is commonly meant the midpoint of the concentration-response curve. A word on the IC50: it is the concentration that gives 50% inhibition. High values mean lower potency, low ones higher potency.

As to `CC(=O)N1CCN(c2ccc(CN(C3CCC3)S(=O)(=O)Cc3ccc(Cl)cc3)c(F)c2)CC1`, the concentration giving a half-maximal response (EC50) in data set [1] worked out at 33 nM. This molecule yielded an IC50 in [2] of 37 nM. Take `CC(=O)N1CCN(c2ccc(CN(C3CCC3)S(=O)(=O)c3ccccc3)c(F)c2)CC1`: the Efficacy with PBMC [3] amounted to 77%. Also, the EC50 in the data set on PBMC [4] was > 10000 nM; in data set [5], 69 nM; in the data set with PBMC [6], 780 nM; in the data set on PBMC [7] it was > 20000 nM. For `CC(=O)N1CCN(c2ccc(CN(C3CCC3)S(=O)(=O)Cc3ccccc3)c(F)c2)CC1`, the EC50 in data set [1] is 11 nM; with PBMC [4], > 10000 nM; with PBMC [9], 350 nM; with PBMC [7], > 20000 nM. Besides, the Efficacy in the data set with PBMC [8] was -79%.

In data set [1], `CC(=O)N1CCN(c2ccc(CN(C3CCC3)S(=O)(=O)CCc3ccccc3)c(F)c2)CC1` yielded an EC50 of 310 nM. Regarding `CC(=O)N1CCN(c2ccc(CN(C3CCC3)S(=O)(=O)c3ccccc3F)c(F)c2)CC1`, the Efficacy in the data set with PBMC [3] worked out at 71%. Also, the EC50 in the data set on PBMC [4] is > 10000 nM; in data set [5], 63 nM; in the data set on PBMC [6], 800 nM; in the data set with PBMC [7] it was > 20000 nM. With `CC(=O)N1CCN(c2ccc(CN(C3CCC3)S(=O)(=O)Cc3ccccc3F)c(F)c2)CC1`, the 50% effective concentration (EC50) at Bile acid receptor is 6100 nM; in [1], 3 nM; with PBMC [4] it was > 10000 nM; in data set [10], 2700 nM; in the data set with PBMC [9] it was 320 nM; in data set [11], 15 nM. The concentration giving a half-maximal response (EC50) in data set [12] was 9200 nM; with PBMC [7], > 20000 nM. For the same molecule, the Efficacy with PBMC [8] is listed as -72%. Also, the Activity entry in data set [13] was “Not Active”. `CC(=O)N1CCN(c2ccc(CN(C3CCC3)S(=O)(=O)c3cccc(F)c3)c(F)c2)CC1` showed an EC50 in data set [5] of 41 nM. Molecule `CC(=O)N1CCN(c2ccc(CN(C3CCC3)S(=O)(=O)Cc3cccc(F)c3)c(F)c2)CC1` registered an EC50 in data set [1] of 10 nM. Still for that read-out and setting: the value for `CC(=O)N1CCN(c2ccc(CN(C3CCC3)S(=O)(=O)c3ccc(F)cc3)c(F)c2)CC1` was > 10000 nM; that for `CC(=O)N1CCN(c2ccc(CN(C3CCC3)S(=O)(=O)Cc3ccc(F)cc3)c(F)c2)CC1` was 7 nM.

Take `CC(=O)N1CCN(c2ccc(CN(C3CCC3)S(=O)(=O)c3ccccc3Cl)c(F)c2)CC1`: in data set [5], the response was half-maximal at 47 nM (EC50). As to `CC(=O)N1CCN(c2ccc(CN(C3CCC3)S(=O)(=O)Cc3ccccc3Cl)c(F)c2)CC1`, it took 4 nM to reach a half-maximal effect in [1] (EC50).

On to `CC(=O)N1CCN(c2ccc(CN(C3CCC3)S(=O)(=O)c3cccc(Cl)c3)c(F)c2)CC1`, for which, in [5], it took 50 nM to reach a half-maximal effect (EC50).

As to `CC(=O)N1CCN(c2ccc(CN(C3CCC3)S(=O)(=O)Cc3cccc(Cl)c3)c(F)c2)CC1`, the EC50 in [1] came out at 9 nM. On the same count and under the same terms, the result for `CC(=O)N1CCN(c2ccc(CN(C3CCC3)S(=O)(=O)c3ccc(Cl)cc3)c(F)c2)CC1` reads 190 nM. In data set [5], `CC(=O)N1CCN(c2ccc(CN(C3CCC3)S(=O)(=O)c3cc(Cl)cc(Cl)c3)c(F)c2)CC1` registered a concentration for a half-maximal effect (EC50) of 6 nM. As to `CC(=O)N1CCN(c2ccc(CN(C3CCC3)S(=O)(=O)Cc3cc(Cl)cc(Cl)c3)c(F)c2)CC1`, the concentration for a half-maximal effect (EC50) in data set [1] is 40 nM. In the case of `CC(=O)N1CCN(c2ccc(CN(C3CCC3)S(=O)(=O)c3cc(F)cc(F)c3)c(F)c2)CC1`, the midpoint of the response in [5], the EC50, lay at 14 nM. The same measure, in the same setting: the value for `COc1cccc(S(=O)(=O)N(Cc2ccc(N3CCN(C(C)=O)CC3)cc2F)C2CCC2)c1` was 26 nM. In [1], `COc1ccc(S(=O)(=O)N(Cc2ccc(N3CCN(C(C)=O)CC3)cc2F)C2CCC2)cc1` came in with a concentration for a half-maximal effect (EC50) of 3300 nM.

Take `CC(=O)N1CCN(c2ccc(CN(C3CCC3)S(=O)(=O)c3ccc(Cl)cc3Cl)c(F)c2)CC1`: a half-maximal response in data set [1] (EC50) required 220 nM. Take `CC(=O)N1CCN(c2ccc(CN(C3CCC3)S(=O)(=O)c3ccc(OC(F)F)cc3)c(F)c2)CC1`: the midpoint of the response in [1], the EC50, lay at 150 nM. This molecule also gave an IC50 in [2] of 31 nM. Consider `CC(=O)N1CCN(c2ccc(CN(C3CCC3)S(=O)(=O)c3ccc(OC(F)(F)F)cc3)c(F)c2)CC1`, for which a half-maximal response in [1] (EC50) required 160 nM.

For `CC(=O)N1CCN(c2ccc(CN(C3CCC3)S(=O)(=O)c3ccc(C(F)(F)F)cc3)c(F)c2)CC1`, in data set [1], the 50% effective concentration (EC50) amounted to 300 nM. On the same count and under the same terms, the result for `CC(=O)N1CCN(c2ccc(CN(C3CCC3)S(=O)(=O)c3ccc(C(C)(C)C)cc3)c(F)c2)CC1` reads 120 nM.
